Values joined by “and” are separate entries in the source; they are usually repeats but may differ in a detail not shown here. Equal entries are not always repeated.
Assays:
[1] = tested on: C57BL/6J mouse dorsal skin; type: in vivo, C57BL/6J mice
From the text: The dorsal skin of male C57BL/6J mice was exposed using depilatory cream and cleaned using PBS. A diffusing cell of 1.13 cm^2 was attached onto the dorsal skin. […] After timed topical administration, the mice were euthanized. The treated skin sites were washed and dissected. The entire skin samples were carefully washed three times with PBS, fixed with 4% paraformaldehyde (PFA) solution and sectioned into 10-μm-thick slices using a cryostat (UV800, Leica Microsystems). 4′,6-Diamidino-2′-phenylindole (DAPI) was used to stain and label the nuclei of skin tissues, and BODIPY was used to stain and localize subcutaneous fat deposits. […] The CLSM images were analysed using ImageJ.

[2] = target: insulin receptor extracellular domains, His-tagged; experiment: SPR; Biacore X100, CM5 chip; anti-His antibody immobilised, His-tag-ECD-IR captured on it; insulin (9.75-156 nM) or OP-I (4.06-65.0 nM) injected in HEPES running buffer pH 7.4, single-cycle kinetics, 180 s binding and 300 s dissociation, flow 30 ul/min
[3] = tested on: STZ-induced type 1 diabetic mice; experiment: Blood glucose levels in STZ-induced diabetic mice; type: in vivo, C57BL/6J mice; conditions: for Effect on BGLs, topical: topical 116 U kg^−1, 1.13 cm^2 dorsal skin
Procedure: Type 1 diabetic mice were established through intraperitoneal delivery of STZ (150 mg per kg in 10 mg ml^−1 disodium citrate buffer, pH 4.5) into healthy male C57BL/6J mice (aged 6–8 weeks, ~25 g). BGLs were monitored, and the mice with BGLs exceeding 300 mg dl^−1 were considered diabetic. Diabetic mice with fasting BGLs within the 300 to 600 mg dl^−1 range were selected for the experiments. BGLs were measured from tail-vein blood (around 3 μl) using a calibrated Sinocare glucose meter.
BGLs were measured at timed intervals. […] The diabetic mice were subjected to a fasting period of 12 h during the experimental procedures.

[4] = tested on: STZ-induced diabetic mice; experiment: Intraperitoneal glucose tolerance test (IPGTT) in diabetic mice; type: in vivo, C57BL/6J mice; parameters: Area under the IPGTT blood glucose curve: unit not given here; conditions: for Area under the IPGTT blood glucose curve: Fig. 3h, 0-120 min; for BGL after intraperitoneal glucose administration (IPGTT): diabetic mice, topical 116 U kg^−1, glucose 1.5 g per kg i.p., hyperglycaemic state maintained
Procedure: BGLs were monitored over time. The diabetic mice were subjected to a fasting period of 3 h during the experimental procedures.

[5] = tested on: STZ-induced diabetic minipigs; experiment: Blood glucose levels in STZ-induced diabetic minipigs (CGMS); type: in vivo, Guangxi Bama minipigs; conditions: cream, 29 U kg^−1
Procedure: Guangxi Bama minipigs (aged 6 months; weight, 35–40 kg) were infused with STZ in freshly prepared disodium citrate buffer (75 mg ml^−1, pH 4.5) at a 150 mg per kg dose within 10 min and then maintained for recovery. The glucose levels were monitored using CGMS[15] (Dexcom G4 Platinum Continuous Glucose Monitor System, Dexcom). A BGL that is constantly higher than 250 mg dl^−1 indicates the successful establishment of the insulin-deficient diabetic minipig model.
The cream was topically applied onto the minipig abdominal skin at an insulin-equivalent dose of 40 mg or 10 mg (n = 3 for each group). The area with the cream was wrapped with plastic film. The BGLs of minipigs were continuously monitored using the CGMS. The diabetic minipigs were subjected to a fasting period of 12 h during the experimental procedures.

HaCat spheroids = experiment: Penetration in 3D-cultured multilayer HaCat spheroids (with or without endocytosis/exocytosis inhibitors); type: cell-based, human; conditions: FITC-eq 1 μg ml^−1, 12 h
Procedure: Multilayer cell spheroids were prepared using the hanging-drop method. […] The cell suspensions (25 μl) were dropped onto the lids of the cell culture plate to form uniform droplets, and 20 ml PBS was added to the plate to keep the droplets moist. The cells were incubated for 72 h and formed dense spheroids, which were transferred to an agarose-coated (1% (w/v) in PBS) 96-well plate with one spheroid per well and incubated for another 72 h to mature. […] The spheroids were washed with PBS and imaged using CLSM by z-stack tomoscan at 20 μm intervals from the bottom to the middle of the spheroids. The integration of FITC fluorescence density and linescan analysis were performed using Image J.
The HaCat spheroids were imaged and analysed as described above.
Spheroids were pre-treated with the indicated inhibitors for 4 h, followed by incubation with
The images are representative of n = 3 independent
experiments. b, Line-scan analysis of FITC fluorescence along a randomly selected line (yellow
(1 picture or pasted object on this page, not shown here)

[6] = tested on: phosphorylated IRβ/IGF1Rβ; experiment: Western blotting for insulin signalling, pIR/IR in skeletal muscle; type: in vivo, mouse; conditions: STZ-diabetic mice, 1 h after s.c. 5 U/kg, western blot, individual mice, n = 3
Procedure: (§1) The mice were euthanized, and their skeletal muscle tissues were collected at 1 h after subcutaneous injection or 4 h after topical administration. Muscle samples were weighed and lysed in radioimmunoprecipitation buffer (Sigma-Aldrich) containing protease and phosphatase inhibitors (Thermo Fisher Scientific) and incubated on ice for 30 min. The lysates were centrifuged at 20,000g for 20 min at 4 °C and quantified using the BCA protein assay. […] The membranes were blocked in Tris-buffered saline with 0.5% Tween-20 (TBST) and 5% BSA for 1 h, followed by overnight incubation at 4 °C with primary antibodies against phosphorylated IRβ/IGF1Rβ (1:1,000), phosphorylated AKT-Thr308 (1:1,000) or GAPDH (1:5,000). After washing three times with TBST, the membranes were incubated with horseradish-peroxidase-conjugated secondary antibodies (HRP-labelled goat anti-rabbit IgG (H+L) or HRP-labelled Goat Anti-Mouse IgG (H+L)) at a dilution of 1:1,000 at room temperature for 1 h. Signal detection was performed using Immobilon Forte chemiluminescence substrate on the ChemiScope 3600 Mini Imaging System (Clinx Science Instruments). […]
(§2) control. The blots are representative of n = 3 independent experiments . b, Quantification of pIR and pAKT levels. […]

[7] = tested on: phosphorylated AKT-Thr308; experiment: Western blotting for insulin signalling, pAKT/AKT in skeletal muscle; type: in vivo, mouse; conditions: STZ-diabetic mice, 1 h after s.c. 5 U/kg, individual mice, n = 3
Procedure: as §1, §2

Row | Compound | Effect on BGLs, topical [3] | Area under the IPGTT blood glucose curve ([4]; replicate 1) | Area under the IPGTT blood glucose curve ([4]; replicate 2) | Area under the IPGTT blood glucose curve ([4]; replicate 3) | Area under the IPGTT blood glucose curve ([4]; replicate 4) | Area under the IPGTT blood glucose curve ([4]; replicate 5) | BGL after intraperitoneal glucose administration (IPGTT) [4] | Effect of topical treatment on minipig BGLs [5] | Fluorescence of HaCat spheroids (CLSM) (HaCat spheroids) | further results
1 | CCN1/C(=C/C=C/C=C/C2=[N+](CCCCCC(=O)O)c3ccc(S(=O)(=O)O)cc3C2(C)C)C(C)(C)c2cc(S(=O)(=O)[O-])ccc21 [free Cy5] |  |  |  |  |  |  |  |  |  | Transdermal permeability of free label [1]: no detectable transdermal permeability
2 | OP-conjugated insulin (insulin conjugated to poly[2-(N-oxide-N,N-dimethylamino)ethyl methacrylate]) |  |  |  |  |  |  |  |  |  | koff [2]: 0.0053 s⁻¹; kon [2]: 204000 M⁻¹ s⁻¹
3 | PEG–I: PEGylated insulin, PEG molecular mass of 5 kDa, used as a control | negligible effect on BGLs | 63110 | 52617 | 56133 | 51381 | 44798 | around 600 mg dl^−1 | almost no obvious changes in minipig BGLs |  | 
4 | PEG–I^FITC: FITC-labelled PEG–I |  |  |  |  |  |  |  |  | only weak fluorescence | 
5 | insulin: Human recombinant insulin (29 U mg^−1, I8830, Solarbio) [reference compound] | negligible effect on BGLs | 55359 | 62309 | 59228 | 59472 | 58535 | around 600 mg dl^−1 | almost no obvious changes in minipig BGLs |  | PIR/IR [6]: 0.1659 and 0.2361 and 0.221; BGL after rebound within 4 h ([3]; s.c. 5 U kg^−1): around 400 mg dl^−1; BGL reached within 1 h ([3]; s.c. 5 U kg^−1, from around 400): ~100 mg/dL; pAKT/AKT [7]: 0.4051 and 0.6287 and 0.4302
6 | insulin^FITC: FITC-labelled insulin |  |  |  |  |  |  |  |  | only weak fluorescence | 

— paper PMC12695667 (Nature, 2025)
